Assay [1] has as its system proteasome. The settings on record: role: inhibitor; cited from earlier work.
Assay [2] concerns X. indica ΔrpmM-O mutant (strain VII). The experiment in a line: Growth curve of X. indica ΔrpmM-O mutant (strain VII) with fed benzoic acid derivative. It is filed as cell-based, Xenorhabdus indica. Here is the method:
To elucidate the influence of rpmM-O on biosynthesis, they were deleted together bases on pAR20 with the synthetic dsDNA fragments used for CRISPR/Cas12 mediated genome editing specific HA-L and R SEQ ID NOs 177-178 The resulting mutant ΔrpmM-O was then analysed for production and growth. Also with the addition of 3,4-AHBA, no growth and thus no production could be observed (FIG. 12 VII).
(§1) In order to analyze the growth curve, the strains were cultured in microtiter plates in a Tecan Spark microplate reader (FIG. 14). A comparison was initially made between strain V and strain VII with and without the addition of 3,4-AHBA (FIGS. 14 A and B). Furthermore, to investigate the sole effect of 3,4-AHBA on the cells, 3,4-AHBA was added to the cells in presence or not of the rpm BGC inducer IPTG (FIGS. 14A and B). […] Subsequently, in order to investigate the effect of the amino group on the benzoic acid, 3,4-DHBA was fed to both strains (FIGS. 14 C and D). […] It can therefore be concluded that the amino group is crucial for the bioactivity of rupshomycin.

For assay [3], the system named is X. indica ΔrpmM-O mutant with empty vector. The settings on record: 3,4-AHBA and IPTG; empty vector control. The protocol:
(§2) Addition of the inducer and benzoic acid was added from the start. The numbering I-IX corresponds to the strains in FIG. 12. A: growth of strain I culture with and without induction (1 mM IPTG), with and without addition of 3,4-AHBA. B: growth of strain V culture with and without induction, with and without addition of 3,4-AHBA. C: growth of strain I culture with and without induction, with and without addition of 3,4-DHBA. D: growth of strain V culture with and without induction, with and without addition of 3,4-DHBA. E: growth of induced and 3,4-AHBA supplemented strain VIII culture with vector expressing rpmMN or empty expression vector. F: growth of induced and 3,4-AHBA supplemented strain IX culture with vector expressing rpmO or empty expression vector.
(§3) Which of the rpmM-O genes are responsible for resistance to the biosynthesis product of the rpm BGC was the question addressed in the following studies. […] The influence of the vector was excluded by conjugating an empty vector into the strains as a control. […] Production of rupshomycins were performed in XPP3 medium with 2% (v/v) XAD-16 for in situ extraction.

In assay [4] the test system is X. indica ΔrpmM-O mutant with vector expressing rpmO (strain IX). The settings on record: 3,4-AHBA and IPTG; compared to empty vector control. The protocol: as §2, §3
The test system of assay [5] is X. indica ΔrpmM-O mutant with vector expressing rpmM and rpmN (strain VIII). The conditions noted are these: 3,4-AHBA and IPTG; compared to empty vector control. The protocol:
as §2, §3

The subject of assay [6] is X. indica strain V. The experiment in a line: Growth curve of X. indica strain V with fed benzoic acid derivative. It is filed as cell-based, Xenorhabdus indica. The conditions noted are these: with and without 3,4-AHBA, in presence or not of IPTG. Here is the method:
as §1

“Also recorded” adds a separate entry of the source.

With `CCCCCCC/C=C/C=C/C(=O)N[C@H](C(=O)N[C@H]1C[C@@H](O)CCNC(=O)/C=C/[C@H](C)NC1=O)[C@@H](C)O` [glidobactin A], the proteasome inhibition result in assay [1] is reported as “potent proteasome inhibitors”.
Take `CC(C)CCCCC/C=C/C=C/C(=O)N[C@H](C(=O)N[C@H]1CC(O)CCNC(=O)/C=C/C(C)NC1=O)[C@@H](C)O` (some centres unmarked) [cepafungin I]: the proteasome inhibition result in assay [1] is listed as “potent proteasome inhibitors”.
On to `O=C(O)c1ccc(O)c(O)c1` [3,4-DHBA], for which, in assay [2] (3,4-DHBA fed, induced vs non-induced culture), the growth result was “did not lead to the complete death of the ΔrpmM-O culture, but to a growth deficiency compared to the non-induced culture”.
Turning to `Nc1cc(C(=O)O)ccc1O` [3,4-AHBA, 3-amino-4-hydroxy benzoic acid], the growth entry was “severe growth defect of the culture” in assay [3]; “no significant growth of the culture was observed compared to the empty vector control” in assay [4]; “significant growth of the culture compared to the empty vector control” in assay [5]; “no particular growth differences were observed” in assay [6]; “culture dies after induction; also recorded: no growth; also recorded: a weak growth was observed in the first 3 hours, which then quickly collapsed and fell below the optical density of the starting point of the experiment” in assay [2] (3,4-AHBA fed, rpm BGC induced, 96 well microtiter plate, 24 hours).
